Test results as given in paper PMC4141155 (2014).
“And” between values parts separate entries of the source, which are not always exact repeats. Equal entries are not always repeated.

Key:
[1] = system: d[(TTAGGG)4TTA] (DNA, G4) TTAGGGTTAGGGTTAGGGTTAGGGTTA; test: ESI-TOF-MS; details: NH4+ 50 mM (ammonium acetate), pH 7.6, 50 % methanol
[2] = system: r[(UUAGGG)4UUA] (RNA, G4) UUAGGGUUAGGGUUAGGGUUAGGGUUA; test: ESI-TOF-MS; details: NH4+ 50 mM (ammonium acetate); pH 7.6, 50 % methanol, equimolar 5 or 10 μM; first of two stepwise constants
[3] = system: dAGGG(TTAGGG)3 (DNA, G4) AGGGTTAGGGTTAGGGTTAGGG; test: UV melting at 295 nm; details: K+ 100 mM (KCl); 25 mM Tris–HCl pH 7.4; 5 μM DNA, 10 μM ligand; 2.27 °C higher than tetrachloride
[4] = system: d[(TTAGGG)4TTA] (DNA, G4) TTAGGGTTAGGGTTAGGGTTAGGGTTA; test: ESI-TOF-MS fraction of bound G-quadruplex; details: NH4+ 50 mM (ammonium acetate); pH 7.6, 50 % methanol; equimolar 10 μM

K 1 ([1]; equimolar 5 or 10 μM, first of two stepwise constants) | K 1 (column head misprinted K 2) [2] | binding [3] | RBA [4] | binding ([1]; tosyl adducts seen in equimolar mixture with TMPyP4 tetratosylate, 10 μM) | Compound
(1.87 ± 0.19) × 10^6 M^−1 | (5.62 ± 0.71) × 10^7 M^−1 | yes | 85.96% and 72.28% |  | C[n+]1ccc(-c2c3nc(c(-c4cc[n+](C)cc4)c4ccc([nH]4)c(-c4cc[n+](C)cc4)c4nc(c(-c5cc[n+](C)cc5)c5ccc2[nH]5)C=C4)C=C3)cc1
 |  |  |  | yes | Cc1ccc(S(=O)(=O)O)cc1
